From ChEMBL document CHEMBL1145312, “Structure-activity relationships of triazolopyridine oxazole p38 inhibitors: identification of candidates for clinical development” (Bioorg Med Chem Lett, 2006)
Values after ≈ are worked out from the molar mass of the structure shown.

Columns and labels:
[1] = Distribution coefficient, log D of the compound; type: physicochemical; details: octanol/water
[2] = Plasma clearance in monkey; type: ADME, organism-based, Macaca mulatta; details: rhesus monkey
[3] = Plasma clearance in rat; type: ADME, organism-based
[4] = Bioavailability in monkey; type: ADME, organism-based, Macaca mulatta; details: rhesus monkey, in vivo
[5] = Bioavailability in rat; type: ADME, organism-based; details: in vivo
[6] = Solubility in PBS buffer at ph 6.5; type: physicochemical
[7] = Volume of distribution in monkey; type: ADME, organism-based, Macaca mulatta; details: rhesus monkey, in vivo; read-out: Vdss
[8] = Volume of distribution in rat; type: ADME, organism-based; details: in vivo, read-out: Vdss
[9] = Half life in rat; type: ADME, organism-based; details: in vivo
[10] = Half life in monkey; type: ADME, organism-based, Macaca mulatta; details: rhesus monkey, in vivo
[11] = Dissociation constant, pKa of the compound; type: physicochemical
[12] = target: Mitogen-activated protein kinase 14 (Homo sapiens, UniProt Q16539); experiment: Inhibition of p38alpha
Sequence of Mitogen-activated protein kinase 14 (Q16539 whole entry): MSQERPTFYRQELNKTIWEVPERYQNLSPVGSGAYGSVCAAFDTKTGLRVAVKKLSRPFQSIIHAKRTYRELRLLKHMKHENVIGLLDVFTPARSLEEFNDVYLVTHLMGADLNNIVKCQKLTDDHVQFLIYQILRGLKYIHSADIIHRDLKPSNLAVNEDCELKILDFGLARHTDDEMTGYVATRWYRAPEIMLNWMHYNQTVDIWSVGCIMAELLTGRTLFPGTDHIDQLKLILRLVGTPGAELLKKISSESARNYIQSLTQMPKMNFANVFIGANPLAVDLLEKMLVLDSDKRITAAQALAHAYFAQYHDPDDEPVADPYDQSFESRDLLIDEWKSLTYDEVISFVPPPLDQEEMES

Homo sapiens = species: Homo sapiens; experiment: Inhibition of LPS-induced TNFalpha production in human whole blood; type: functional, organism-based
Monocyte = experiment: Inhibition of LPS-induced TNFalpha production in human monocytes; type: functional, cell-based
hERG (KCNH2) = hERG (KCNH2) (Homo sapiens, UniProt Q12809); experiment: Inhibition of hERG channel current in HEK293 cells at 3 uM; type: toxicity, cell-based; details: HEK293 cells that express hERG
Sequence of hERG (KCNH2) (Q12809 whole entry): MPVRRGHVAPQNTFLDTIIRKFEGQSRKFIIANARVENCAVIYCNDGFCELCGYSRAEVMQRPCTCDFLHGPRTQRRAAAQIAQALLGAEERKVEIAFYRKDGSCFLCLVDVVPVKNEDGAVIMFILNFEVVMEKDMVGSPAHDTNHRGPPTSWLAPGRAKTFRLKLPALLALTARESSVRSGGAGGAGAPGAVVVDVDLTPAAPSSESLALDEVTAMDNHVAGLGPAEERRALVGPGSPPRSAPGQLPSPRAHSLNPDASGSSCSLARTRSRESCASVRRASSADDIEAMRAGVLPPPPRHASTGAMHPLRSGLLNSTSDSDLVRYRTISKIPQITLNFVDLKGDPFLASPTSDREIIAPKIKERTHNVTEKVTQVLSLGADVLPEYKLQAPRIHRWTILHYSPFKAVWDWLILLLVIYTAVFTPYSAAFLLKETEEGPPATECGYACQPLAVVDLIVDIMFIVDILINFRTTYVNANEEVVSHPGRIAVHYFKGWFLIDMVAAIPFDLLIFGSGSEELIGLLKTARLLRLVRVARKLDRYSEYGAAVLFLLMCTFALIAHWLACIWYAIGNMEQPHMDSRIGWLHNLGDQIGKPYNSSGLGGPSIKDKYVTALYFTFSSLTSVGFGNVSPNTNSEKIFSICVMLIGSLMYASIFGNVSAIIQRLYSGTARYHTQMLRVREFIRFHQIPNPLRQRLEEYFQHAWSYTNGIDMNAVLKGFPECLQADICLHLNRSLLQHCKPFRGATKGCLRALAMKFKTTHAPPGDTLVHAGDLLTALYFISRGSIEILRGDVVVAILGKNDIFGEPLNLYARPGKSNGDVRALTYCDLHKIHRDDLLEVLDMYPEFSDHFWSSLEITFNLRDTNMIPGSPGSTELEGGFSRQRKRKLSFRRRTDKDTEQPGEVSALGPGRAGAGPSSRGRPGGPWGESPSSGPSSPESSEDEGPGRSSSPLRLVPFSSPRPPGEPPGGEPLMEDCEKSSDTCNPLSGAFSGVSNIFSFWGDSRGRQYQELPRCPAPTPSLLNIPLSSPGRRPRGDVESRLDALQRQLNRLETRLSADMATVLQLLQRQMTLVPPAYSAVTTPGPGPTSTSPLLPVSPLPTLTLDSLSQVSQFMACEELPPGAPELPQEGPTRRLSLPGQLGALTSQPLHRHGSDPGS

Rattus norvegicus = species: Rattus norvegicus; experiment: Inhibition of LPS-induced TNFalpha release in rat; type: functional

logD [1] | pKa [11] | SMILES | clearance [2] [mL/min/kg] | clearance [3] [mL/min/kg] | bioavailability [4] [%] | bioavailability [5] [%] | solubility [6] [µg/mL] | Vd [7] [L/kg] | Vd [8] [L/kg] | half-life [9] [h] | half-life [10] [h] | IC50 [12] [nM] | IC50 (Homo sapiens) [nM] | IC50 (Monocyte) [nM] | inhibition at 3 µM (hERG (KCNH2)) [%] | ED50 (Rattus norvegicus) [mg/kg]
2.18 | 2.86 | CC(C)c1nnc2ccc(-c3ocnc3-c3ccc(F)cc3)cn12 | 16 | 12 | 75 | 85 | 29.6 (≈ 91.8 µM) | 1.8 | 0.8 | 0.7 | 1.3 |  |  |  |  | 
 |  | CC(C)c1nnc2ccc(-c3ocnc3-c3cccc(Cl)c3)cn12 | 15 | 17 | 19 | 37 | 5.2 (≈ 15.3 µM) | 1 | 1 | 1.6 | 1.1 | 13.5 | 550 | 52.3 | 14 | 2.4
